Laboratory results taken from ChEMBL document CHEMBL1153885, “Design, synthesis and evaluation of novel uracil acetamide derivatives as potential inhibitors of Plasmodium falciparum dUTP nucleotidohydrolase” (Eur J Med Chem, 2009).

Key:
[1] = target: T1, Deoxyuridine 5'-triphosphate nucleotidohydrolase, mitochondrial (Homo sapiens, UniProt P33316); experiment: Inhibition of human dUTPase
T1 sequence (P33316 whole entry): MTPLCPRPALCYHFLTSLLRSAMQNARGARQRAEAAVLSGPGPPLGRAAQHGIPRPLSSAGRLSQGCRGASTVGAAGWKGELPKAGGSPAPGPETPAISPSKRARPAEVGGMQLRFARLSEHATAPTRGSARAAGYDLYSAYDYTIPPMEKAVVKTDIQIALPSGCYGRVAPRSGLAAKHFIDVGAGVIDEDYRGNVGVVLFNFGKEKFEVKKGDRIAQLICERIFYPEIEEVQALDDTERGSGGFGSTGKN

Plasmodium falciparum = experiment: Antiplasmodial activity against chloroquine-resistant Plasmodium falciparum K1 infected erythrocytes; type: functional, organism-based
[2] = Selectivity ratio of human dUTPase to Plasmodium falciparum dUTPase
dUTP pyrophosphatase = target: T2, dUTP pyrophosphatase (Plasmodium falciparum 3D7, UniProt Q8II92); experiment: Inhibition of Plasmodium falciparum dUTPase
T2 sequence (Q8II92 whole entry): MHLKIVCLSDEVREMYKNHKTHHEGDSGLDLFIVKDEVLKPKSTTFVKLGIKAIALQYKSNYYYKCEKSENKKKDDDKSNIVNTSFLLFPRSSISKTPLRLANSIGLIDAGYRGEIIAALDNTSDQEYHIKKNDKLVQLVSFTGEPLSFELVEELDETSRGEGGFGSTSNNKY

L6 = experiment: Cytotoxicity against rat L6 cells; type: cell-based

Compound	Ki [1] [µM]	IC50 (Plasmodium falciparum) [µM]	Selectivity Index [2]	Ki (dUTP pyrophosphatase) [µM]	Activity (L6) [µM]
O=C(Cn1ccc(=O)[nH]c1=O)NCCCNC(c1ccccc1)(c1ccccc1)c1ccccc1	> 1000	2.5	> 43	23.1	102.2
O=C(Cn1ccc(=O)[nH]c1=O)NCCNC(c1ccccc1)(c1ccccc1)c1ccccc1	> 1000	4.2	> 26	37.3	53
CC(C)(C)[Si](NCCCCCCn1ccc(=O)[nH]c1=O)(c1ccccc1)c1ccccc1	> 1000	3.9	> 117	8.5	18
CC(C)(C)[Si](OCCCNC(=O)Cn1ccc(=O)[nH]c1=O)(c1ccccc1)c1ccccc1	> 1000	4.6	> 1	> 1000	88.9
CC(C)(C)[Si](OCCCCNC(=O)Cn1ccc(=O)[nH]c1=O)(c1ccccc1)c1ccccc1	> 1000	3.7	> 1	> 1000	33.4
O=C(Cn1ccc(=O)[nH]c1=O)NCCCCNC(c1ccccc1)(c1ccccc1)c1ccccc1	> 1000	2.9	> 1	> 1000	42.7
O=C(Cn1ccc(=O)[nH]c1=O)NCCCNCCCNC(c1ccccc1)(c1ccccc1)c1ccccc1	> 1000	3.9	> 1	> 1000	76.7
O=C(Cn1ccc(=O)[nH]c1=O)NCCNCCNC(c1ccccc1)(c1ccccc1)c1ccccc1	> 1000	4.5	> 1	> 1000	52.7
O=c1ccn(CCCCCCNC(c2ccccc2)(c2ccccc2)c2ccccc2)c(=O)[nH]1	–	–	> 555	–	40
O=c1ccn(CCCCCNC(c2ccccc2)(c2ccccc2)c2ccccc2)c(=O)[nH]1	–	–	> 232	–	39
O=C(Cn1ccc(=O)[nH]c1=O)N(CCO)CCNC(c1ccccc1)(c1ccccc1)c1ccccc1	> 1000	> 83	> 1	> 1000	> 373
